Molecular target: T1, growth hormone secretagogue receptor (Homo sapiens, UniProt Q92847)
T1 construct: expressed in transfected cells; host or cells: HEK 293 (EBNA) cells, membrane preparation
Experiment: Saturation binding assay using T-MK0677 on transfected HEK 293 (EBNA) cell membranes
Description: Human Embryonic Kidney HEK 293 (EBNA) cells were grown in suspension and transfected according to the method previously described (Schlaeger and Christensen, Cytotechnology, 30, 71-83, 1999). The cells were centrifugated for 10 min at 500 rpm, washed once with PBS-0.7 mM EDTA/(4° C.) and resuspended in PBS-EDTA-PI (with Protease inhibitor cocktail), at 2 ml/g of cells. Cells were broken with Ultra Turax level green 3×15″ with 30″ breaks on ice. To remove debris the suspension was centrifugated in a Sorvall SS34 rotor for 20 min at 2,000 rpm. The supernatant was collected and centrifugated for 40 min at 20,000 rpm. The pellet was resuspended in PBS-EDTA. Receptor density was verified with saturation binding assay using T-MK 0677 to be 4.9 pmol/mg protein.
The membrane was resuspended in Binding buffer (25 mM Hepes, pH 7.4, 25 mM MgCl2, 1 mM CaCl2, 0.1% BSA, 0.03% Bacitracine (protease inhibitor)) to 0.1 to 2 μg/well. […]
A filter plate (Packard GF/B unifilter plate) was treated with 50 μL/well 0.5% polyethyleneimine (PEI) in PBS for 15 min. […] Then 50 μL of Microscint 0 were added per well and the T decay counted in a topcount from Packard Instruments.

T1 sequence (Q92847 whole entry): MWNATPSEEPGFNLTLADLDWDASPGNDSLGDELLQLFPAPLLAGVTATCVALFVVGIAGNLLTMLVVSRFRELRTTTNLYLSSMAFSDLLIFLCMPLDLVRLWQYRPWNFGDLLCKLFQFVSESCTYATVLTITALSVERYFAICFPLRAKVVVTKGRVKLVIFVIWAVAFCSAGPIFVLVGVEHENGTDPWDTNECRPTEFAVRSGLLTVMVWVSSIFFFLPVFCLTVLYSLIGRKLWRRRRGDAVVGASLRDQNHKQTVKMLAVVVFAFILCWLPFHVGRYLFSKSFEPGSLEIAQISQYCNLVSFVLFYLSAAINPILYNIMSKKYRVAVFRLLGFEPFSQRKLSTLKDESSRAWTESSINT

## tris-tritiated-2-amino-N-[(1R)-2-[1,2-dihydro-1-(methylsulfonyl)spiro[3H-indole-3,4′-piperidin]-1′-yl]-2-oxo-1-[(phenylmethoxy)methyl]ethyl]-2-methyl-, monomethanesulfonate [T-MK 0677]
  Receptor density: 4.9 pmol/mg protein
